This experiment concerns Ramos cells. The experiment in a line: Cytotoxicity in Ramos cells (cell death). It is filed as cell-based. The procedure: The compounds listed in Table 7 were tested for cytotoxicity in Ramos cells. The assay was conducted as described in K. M. Johnson et al. Chemistry & Biology 2005, 12, 485-496.

`O=C(N=C(Nc1ccc2[nH]c(=O)oc2c1)Nc1ccccc1C(F)(F)F)c1ccc(Cl)cc1` [Compound I-18] had an EC50 of under 10 µM.

With `CC(C)(C)c1ccccc1NC(=NC(=O)c1ccc(C(F)(F)F)cc1)Nc1ccc2[nH]c(=O)oc2c1` [Compound I-86], the EC50 is under 10 µM.

In the case of `O=C(N=C(Nc1cc(F)cc(Cl)c1)Nc1ccc2[nH]c(=O)oc2c1)c1ccc(C(F)(F)F)cc1` [Compound I-94], the concentration for a half-maximal effect (EC50) was under 10 µM.

As to `O=C(N=C(NCCc1c[nH]cn1)Nc1ccc2ccccc2c1)c1ccc(Cl)cc1` [III-9], the concentration giving a half-maximal response (EC50) was over 10 µM.

Turning to `O=C(N=C(Nc1ccc2[nH]c(=O)oc2c1)Nc1ccccc1C(F)(F)F)c1cccc(Cl)c1` [Compound I-19], the EC50 is under 10 µM.

Compound `O=C(N=C(Nc1cccc(C(F)(F)F)c1)Nc1ccc2[nH]c(=O)oc2c1)c1ccc(Cl)cc1` [Compound I-89] had an EC50 of under 10 µM.

`O=C(N=C(Nc1ccc2[nH]c(=O)oc2c1)Nc1ccccc1Cl)c1ccc(C(F)(F)F)cc1` [Compound I-93] showed an EC50 of under 10 µM.

With `O=C(N=C(Nc1cccc(C(F)(F)F)c1)Nc1ccc2[nH]ncc2c1)c1ccc(Cl)cc1` [II-21], the EC50 is under 10 µM.

With `CC(C)(C)c1ccccc1NC(=NC(=O)c1ccc(F)c(F)c1)Nc1ccc2[nH]c(=O)oc2c1` [Compound I-98], the EC50 is under 10 µM.

Turning to `CC(C)(C)c1ccccc1NC(=NC(=O)c1ccc(Br)cc1)NCCc1c[nH]cn1` [III-4], the EC50 is under 10 µM.

With `O=C(N=C(Nc1ccc(C2CC2)cc1)Nc1ccc2[nH]c(=O)oc2c1)c1ccc(C(F)(F)F)cc1` [Compound I-137], the EC50 was under 10 µM.

The compound `O=C(N=C(Nc1cccc(C(F)(F)F)c1)Nc1ccc2[nH]c(=O)oc2c1)c1ccc(C(F)(F)F)cc1` [Compound I-85] showed an EC50 of under 10 µM.

Compound `CC(C)(C)c1ccccc1NC(=NC(=O)c1ccc(C(F)(F)F)cc1F)Nc1ccc2oc(=O)[nH]c2c1` [Compound I-132] returned an EC50 of over 10 µM.

`O=C(N=C(Nc1ccc2ccccc2c1)Nc1ccc2[nH]ncc2c1)c1ccc(Cl)cc1` [II-10] came in with an EC50 of under 10 µM.

As for `O=C(N=C(Nc1ccc(-c2ccccc2)cc1)Nc1ccc2[nH]c(=O)oc2c1)c1ccc(Cl)cc1` [Compound I-30], the EC50 is under 10 µM.

As for `O=C(N=C(Nc1ccc2ccccc2c1)Nc1ccc2[nH]c(=O)oc2c1)c1ccc(Br)cc1` [Compound I-25], the EC50 is under 10 µM.

On to `N#Cc1cccc(C(=O)N=C(Nc2cccc(Cl)c2)Nc2ccc3[nH]c(=O)oc3c2)c1` [Compound I-114], for which the EC50 is under 10 µM.

In turn, `O=C(N=C(Nc1cccc(Cl)c1)Nc1ccc2[nH]ncc2c1)c1ccc(C(F)(F)F)cc1` [II-20] came in with an EC50 of under 10 µM.

Consider `CC(C)(C)c1ccccc1NC(=NC(=O)c1cccc(F)c1)Nc1ccc2[nH]c(=O)oc2c1` [Compound I-96], for which the EC50 was under 10 µM.

Turning to `CC(C)(C)c1ccccc1NC(=NC(=O)c1ccc(C(F)(F)F)cc1)Nc1ccc2oc(=O)[nH]c2c1` [Compound I-129], the 50% effective concentration (EC50) was under 10 µM.

As to `N#Cc1cccc(C(=O)N=C(Nc2cccc(C3CC3)c2)Nc2ccc3oc(=O)[nH]c3c2)c1` [Compound I-136], the EC50 was under 10 µM.

The compound `N#Cc1cccc(C(=O)N=C(Nc2cc(Cl)cc(Cl)c2)Nc2ccc3[nH]c(=O)oc3c2)c1` [Compound I-116] returned an EC50 of over 10 µM.

For `O=C(N=C(Nc1ccc2[nH]c(=O)[nH]c2c1)Nc1ccccc1C(F)(F)F)c1cccc(Cl)c1` [Compound I-3], the EC50 was over 10 µM.

In turn, `CC(C)(C)c1ccccc1NC(=NC(=O)c1ccc(F)cc1)Nc1ccc2[nH]c(=O)oc2c1` [Compound I-24] yielded an EC50 of under 10 µM.

The compound `O=C(N=C(Nc1ccc2[nH]ncc2c1)Nc1ccccc1C(F)(F)F)c1cccc(Cl)c1` [II-3] showed an EC50 of under 10 µM.

`CC(C)(C)c1ccccc1NC(=NC(=O)c1ccc(F)cc1)Nc1ccc2[nH]c(=O)[nH]c2c1` [Compound I-8] registered an EC50 of under 10 µM.

In the case of `O=C(N=C(Nc1cccc(Cl)c1)Nc1ccc2[nH]c(=O)oc2c1)c1ccc(Cl)cc1` [Compound I-91], the half-maximal effective concentration (EC50) is under 10 µM.

Turning to `O=C(N=C(Nc1ccc(-c2ccccc2)cc1)Nc1ccc2[nH]ncc2c1)c1ccc(Cl)cc1` [II-14], the EC50 is under 10 µM.

As to `O=C(N=C(Nc1ccc(Cl)cc1)Nc1ccc2[nH]c(=O)oc2c1)c1ccc(C(F)(F)F)cc1` [Compound I-87], the EC50 is under 10 µM.

Compound `N#Cc1cccc(C(=O)N=C(Nc2cccc(C3CC3)c2)Nc2ccc3[nH]c(=O)oc3c2)c1` [Compound I-110] returned an EC50 of under 10 µM.

Compound `O=C(N=C(NCCc1c[nH]cn1)Nc1ccc2ccccc2c1)c1ccc(F)cc1` [III-11] yielded an EC50 of over 10 µM.

In the case of `CC(C)(C)c1ccccc1NC(=NC(=O)c1cccc(C(F)(F)F)c1)Nc1ccc2[nH]c(=O)oc2c1` [Compound I-95], the EC50 was under 10 µM.

Compound `O=C(N=C(Nc1ccc2ccccc2c1)Nc1ccc2[nH]c(=O)[nH]c2c1)c1ccc(F)cc1` [Compound I-12] came in with an EC50 of over 10 µM.

As for `O=C(N=C(Nc1ccc2ccccc2c1)Nc1ccc2[nH]ncc2c1)c1ccc(Br)cc1` [II-9], the half-maximal effective concentration (EC50) is under 10 µM.

`CC(C)(C)c1ccc(NC(=NC(=O)c2cccc(C#N)c2)Nc2ccc3[nH]c(=O)oc3c2)cc1` [Compound I-119] yielded an EC50 of under 10 µM.

In turn, `Cn1c(=O)oc2cc(NC(=NC(=O)c3ccc(C(F)(F)F)cc3)Nc3ccccc3C(C)(C)C)ccc21` [Compound I-134] came in with an EC50 of over 10 µM.

As for `N#Cc1cccc(C(=O)N=C(Nc2cccc(C(F)(F)F)c2)Nc2ccc3oc(=O)[nH]c3c2)c1` [Compound I-133], the EC50 was over 10 µM.

In the case of `O=C(N=C(Nc1ccc(-c2ccccc2)cc1)Nc1ccc2[nH]c(=O)[nH]c2c1)c1ccc(Cl)cc1` [Compound I-14], the EC50 was over 10 µM.

Compound `O=C(N=C(Nc1cccc(C2CC2)c1)Nc1ccc2oc(=O)[nH]c2c1)c1ccc(C(F)(F)F)cc1` [Compound I-135] showed an EC50 of over 10 µM.

For `O=C(N=C(Nc1cccc(C2CC2)c1)Nc1ccc2[nH]c(=O)oc2c1)c1cccc(C(F)(F)F)c1` [Compound I-109], the EC50 was under 10 µM.

In the case of `O=C(N=C(NCCc1c[nH]cn1)Nc1ccccc1C(F)(F)F)c1ccc(F)cc1` [III-3], the EC50 was over 10 µM.

`CC(C)(C)c1ccccc1NC(=NC(=O)c1ccc(Cl)cc1)NCCc1c[nH]cn1` [III-5]: the EC50 is under 10 µM.

`N#Cc1cccc(C(=O)N=C(Nc2ccc(C(F)(F)F)cc2)Nc2ccc3[nH]c(=O)oc3c2)c1` [Compound I-118] yielded a concentration giving a half-maximal response (EC50) of over 10 µM.

In turn, `O=C(N=C(Nc1ccc2[nH]c(=O)oc2c1)Nc1ccc(Cl)cc1F)c1cccc(C(F)(F)F)c1` [Compound I-99] gave an EC50 of over 10 µM.

Turning to `CC(C)(C)c1ccccc1NC(=NC(=O)c1ccc(Br)cc1)Nc1ccc2[nH]c(=O)oc2c1` [Compound I-21], the EC50 was under 10 µM.

In turn, `CC(C)(C)c1ccccc1NC(=NC(=O)c1ccc(Cl)cc1)Nc1ccc2[nH]ncc2c1` [II-6] yielded an EC50 of under 10 µM.

On to `O=C(N=C(Nc1ccc(Cl)cc1)Nc1ccc2[nH]ncc2c1)c1ccc(C(F)(F)F)cc1` [II-19], for which the EC50 was under 10 µM.

For the compound `O=C(N=C(Nc1ccc(-c2ccccc2)cc1)Nc1ccc2[nH]ncc2c1)c1cccc(Cl)c1` [II-15], the EC50 was under 10 µM.

On to `O=C(N=C(Nc1ccc2ccccc2c1)Nc1ccc2[nH]c(=O)oc2c1)c1ccc(Cl)cc1` [Compound I-26], for which the half-maximal effective concentration (EC50) was under 10 µM.

The values are drawn from patent US8497307B2, “Aryl guanidine F1F0-ATPase inhibitors and related methods” (The Regents of the University of Michigan, priority 2008, dated 2013).
